Assay: Residual amotosalen after second illumination (two-wavelength treatment)
Type: physicochemical
Details: 15 μM amotosalen, ~3 J/cm^2 each
Procedure: Additionally, any two or more wavelengths of narrow bandwidth light are evaluated in combination, such as for example, photochemical treatment of a biological fluid using amotosalen and ultraviolet light of a first peak wavelength and ultraviolet light of a second peak wavelength, sequentially or concurrently. More specifically, in one example pathogen inactivation of E. coli (Gram negative) and S. epidermidis (Gram positive) bacteria was evaluated using amotosalen and the device with LEDs of wavelengths described in Example 8. […] The spiked plasma units were divided into control (no amotosalen+UV light) and treatment (with amotosalen) conditions, with amotosalen used at 15 μM concentration. The units were aliquoted into six-well plates (5 mL/well) for illumination. Pre-illumination samples were taken and control bacterial titers determined using standard colony forming unit assay. […] Data for pre-illumination titers, post-first illumination titer, post-second illumination titer, and post-treatment (after second illumination) residual amotosalen (S-59) are shown in the following Tables 40-41.

Cc1oc2c(C)c3oc(=O)cc(C)c3cc2c1COCCN [S-59, 3-(2-aminoethoxymethyl)-2,5,9-trimethylfuro[3,2-g]chromen-7-one]
S-59 (E. coli plasma, UV 1 265 nm then UV 2 325 nm): 4.76 µM
S-59 (E. coli plasma, UV 1 265 nm then UV 2 340 nm): 3.89 µM
S-59 (E. coli plasma, UV 1 265 nm then UV 2 365 nm): 8.07 µM
S-59 (E. coli plasma, UV 1 280 nm then UV 2 325 nm): 4.44 µM
S-59 (E. coli plasma, UV 1 280 nm then UV 2 340 nm): 3.62 µM
S-59 (E. coli plasma, UV 1 280 nm then UV 2 365 nm): 7.96 µM
S-59 (E. coli plasma, UV 1 325 nm then UV 2 265 nm): 4.88 µM
S-59 (E. coli plasma, UV 1 325 nm then UV 2 280 nm): 4.66 µM
S-59 (E. coli plasma, UV 1 340 nm then UV 2 265 nm): 4.43 µM
S-59 (E. coli plasma, UV 1 340 nm then UV 2 280 nm): 4.46 µM
S-59 (E. coli plasma, UV 1 365 nm then UV 2 265 nm): 8.13 µM
S-59 (E. coli plasma, UV 1 365 nm then UV 2 280 nm): 8.00 µM
S-59 (S. epidermidis plasma, Light 1 265 nm then Light 2 325 nm): 4.82 µM
S-59 (S. epidermidis plasma, Light 1 265 nm then Light 2 340 nm): 3.93 µM
S-59 (S. epidermidis plasma, Light 1 265 nm then Light 2 365 nm): 8.17 µM
S-59 (S. epidermidis plasma, Light 1 280 nm then Light 2 325 nm): 4.50 µM
S-59 (S. epidermidis plasma, Light 1 280 nm then Light 2 340 nm): 3.77 µM
S-59 (S. epidermidis plasma, Light 1 280 nm then Light 2 365 nm): 8.01 µM
S-59 (S. epidermidis plasma, Light 1 325 nm then Light 2 265 nm): 4.92 µM
S-59 (S. epidermidis plasma, Light 1 325 nm then Light 2 280 nm): 4.63 µM
S-59 (S. epidermidis plasma, Light 1 340 nm then Light 2 265 nm): 4.47 µM
S-59 (S. epidermidis plasma, Light 1 340 nm then Light 2 280 nm): 4.46 µM
S-59 (S. epidermidis plasma, Light 1 365 nm then Light 2 265 nm): 8.39 µM
S-59 (S. epidermidis plasma, Light 1 365 nm then Light 2 280 nm): 8.07 µM

— patent US12214092B2, “Systems and methods for treating biological fluids” (Cerus Corporation, priority 2017, dated 2025)
